The supplement of paper PMC10307832

Assays:
Assay in all cases: relative viability (nuclei count vs DMSO), 5 days (fraction); higher = more cells survive
BEN = test system: BEN
In short: (§1)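 One day after seeding in 1536-well plates, lung cancer cell lines were dosed by pin tool. Dosing was either single-drug or a fixed anchor-drug dose plus five library-drug doses (not always all listed) in √10 steps. After 5 days, nuclei were stained in one fix-and-stain step and counted on 4× images, and relative viability is the nuclei count of treated wells over that of vehicle wells, given as the median of duplicate plates.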

EMC-BAC-2 = test system: EMC-BAC-2
In short: as §1

H3255 = test system: H3255
In short: as §1

HOP-62 = test system: HOP-62
In short: as §1

LCLC-97TM1 = test system: LCLC-97TM1
In short: as §1

LXF-289 = test system: LXF-289
In short: as §1

NCI-H1563 = test system: NCI-H1563
In short: as §1

NCI-H1650 = test system: NCI-H1650
In short: as §1

NCI-H1915 = test system: NCI-H1915
In short: as §1

NCI-H1993 = test system: NCI-H1993
In short: as §1

NCI-H2009 = test system: NCI-H2009
In short: as §1

NCI-H2023 = test system: NCI-H2023
In short: as §1

NCI-H2085 = test system: NCI-H2085
In short: as §1

NCI-H2126 = test system: NCI-H2126
In short: as §1

NCI-H2347 = test system: NCI-H2347
In short: as §1

NCI-H322M = test system: NCI-H322M
In short: as §1

NCI-H358 = test system: NCI-H358
In short: as §1

NCI-H647 = test system: NCI-H647
In short: as §1

NCI-H661 = test system: NCI-H661
In short: as §1

NCI-H727 = test system: NCI-H727
In short: as §1

PC-14 = test system: PC-14
In short: as §1

SK-LU-1 = test system: SK-LU-1
In short: as §1

SW 1573 = test system: SW 1573
In short: as §1

## Clc1ccc(Nc2nnc(Cc3ccncc3)c3ccccc23)cc1 [Vatalanib] + CS(=O)(=O)N1CCN(Cc2cc3nc(-c4cccc5[nH]ncc45)nc(N4CCOCC4)c3s2)CC1 [Pictilisib] (partner 1 µM)
BEN; first compound 0.04 µM
  relative viability: 0.552
BEN; first compound 0.1265 µM
  relative viability: 0.495
BEN; first compound 0.4 µM
  relative viability: 0.529
BEN; first compound 1.265 µM
  relative viability: 0.555
BEN; first compound 4 µM
  relative viability: 0.65
EMC-BAC-2; first compound 0.04 µM
  relative viability: 0.559
EMC-BAC-2; first compound 0.1265 µM
  relative viability: 0.556
EMC-BAC-2; first compound 0.4 µM
  relative viability: 0.572
EMC-BAC-2; first compound 1.265 µM
  relative viability: 0.533
EMC-BAC-2; first compound 4 µM
  relative viability: 0.525
H3255; first compound 0.04 µM
  relative viability: 0.43
H3255; first compound 0.1265 µM
  relative viability: 0.52
H3255; first compound 0.4 µM
  relative viability: 0.311
H3255; first compound 1.265 µM
  relative viability: 0.384
H3255; first compound 4 µM
  relative viability: 0.438
HOP-62; first compound 0.04 µM
  relative viability: 0.758
HOP-62; first compound 0.4 µM
  relative viability: 0.632
HOP-62; first compound 1.265 µM
  relative viability: 0.702
HOP-62; first compound 4 µM
  relative viability: 0.713
LCLC-97TM1; first compound 0.04 µM
  relative viability: 0.136
LCLC-97TM1; first compound 0.1265 µM
  relative viability: 0.243
LCLC-97TM1; first compound 0.4 µM
  relative viability: 0.187
LCLC-97TM1; first compound 1.265 µM
  relative viability: 0.19
LCLC-97TM1; first compound 4 µM
  relative viability: 0.195
LXF-289; first compound 0.04 µM
  relative viability: 0.894
LXF-289; first compound 0.1265 µM
  relative viability: 0.737
LXF-289; first compound 0.4 µM
  relative viability: 0.748
LXF-289; first compound 1.265 µM
  relative viability: 0.702
LXF-289; first compound 4 µM
  relative viability: 0.747
NCI-H1563; first compound 0.04 µM
  relative viability: 0.634
NCI-H1563; first compound 0.1265 µM
  relative viability: 0.677
NCI-H1563; first compound 0.4 µM
  relative viability: 0.685
NCI-H1563; first compound 1.265 µM
  relative viability: 0.673
NCI-H1563; first compound 4 µM
  relative viability: 0.652
NCI-H1650; first compound 0.04 µM
  relative viability: 0.612
NCI-H1650; first compound 0.1265 µM
  relative viability: 0.556
NCI-H1650; first compound 0.4 µM
  relative viability: 0.578
NCI-H1650; first compound 1.265 µM
  relative viability: 0.55
NCI-H1650; first compound 4 µM
  relative viability: 0.592
NCI-H1915; first compound 0.04 µM
  relative viability: 1.12
NCI-H1915; first compound 0.1265 µM
  relative viability: 0.929
NCI-H1915; first compound 0.4 µM
  relative viability: 0.972
NCI-H1915; first compound 1.265 µM
  relative viability: 0.863
NCI-H1915; first compound 4 µM
  relative viability: 0.942
NCI-H1993; first compound 0.04 µM
  relative viability: 0.782
NCI-H1993; first compound 0.1265 µM
  relative viability: 0.898
NCI-H1993; first compound 0.4 µM
  relative viability: 0.847
NCI-H1993; first compound 1.265 µM
  relative viability: 0.816
NCI-H1993; first compound 4 µM
  relative viability: 0.887
NCI-H2009; first compound 0.04 µM
  relative viability: 0.977
NCI-H2009; first compound 0.1265 µM
  relative viability: 0.656
NCI-H2009; first compound 0.4 µM
  relative viability: 0.833
NCI-H2009; first compound 1.265 µM
  relative viability: 0.798
NCI-H2009; first compound 4 µM
  relative viability: 0.885
NCI-H2023; first compound 0.04 µM
  relative viability: 0.252
NCI-H2023; first compound 0.1265 µM
  relative viability: 0.255
NCI-H2023; first compound 0.4 µM
  relative viability: 0.318
NCI-H2023; first compound 1.265 µM
  relative viability: 0.218
NCI-H2023; first compound 4 µM
  relative viability: 0.226
NCI-H2085; first compound 0.04 µM
  relative viability: 0.424
NCI-H2085; first compound 0.1265 µM
  relative viability: 0.524
NCI-H2085; first compound 0.4 µM
  relative viability: 0.44
NCI-H2085; first compound 1.265 µM
  relative viability: 0.469
NCI-H2085; first compound 4 µM
  relative viability: 0.438
NCI-H2126; first compound 0.04 µM
  relative viability: 0.488
NCI-H2126; first compound 0.1265 µM
  relative viability: 0.512
NCI-H2126; first compound 0.4 µM
  relative viability: 0.524
NCI-H2126; first compound 1.265 µM
  relative viability: 0.47
NCI-H2126; first compound 4 µM
  relative viability: 0.494
NCI-H2347; first compound 0.04 µM
  relative viability: 0.709
NCI-H2347; first compound 0.1265 µM
  relative viability: 0.723
NCI-H2347; first compound 0.4 µM
  relative viability: 0.409
NCI-H2347; first compound 1.265 µM
  relative viability: 0.92
NCI-H2347; first compound 4 µM
  relative viability: 0.319
NCI-H322M; first compound 0.04 µM
  relative viability: 0.513
NCI-H322M; first compound 0.1265 µM
  relative viability: 0.489
NCI-H322M; first compound 0.4 µM
  relative viability: 0.555
NCI-H322M; first compound 1.265 µM
  relative viability: 0.534
NCI-H322M; first compound 4 µM
  relative viability: 0.553
NCI-H358; first compound 0.04 µM
  relative viability: 0.378
NCI-H358; first compound 0.1265 µM
  relative viability: 0.361
NCI-H358; first compound 0.4 µM
  relative viability: 0.397
NCI-H358; first compound 1.265 µM
  relative viability: 0.311
NCI-H358; first compound 4 µM
  relative viability: 0.353
NCI-H647; first compound 0.04 µM
  relative viability: 0.387
NCI-H647; first compound 0.1265 µM
  relative viability: 0.42
NCI-H647; first compound 1.265 µM
  relative viability: 0.385
NCI-H647; first compound 4 µM
  relative viability: 0.4
NCI-H661; first compound 0.04 µM
  relative viability: 0.345
NCI-H661; first compound 0.1265 µM
  relative viability: 0.378
NCI-H661; first compound 0.4 µM
  relative viability: 0.392
NCI-H661; first compound 1.265 µM
  relative viability: 0.365
NCI-H661; first compound 4 µM
  relative viability: 0.34
NCI-H727; first compound 0.04 µM
  relative viability: 0.421
NCI-H727; first compound 0.1265 µM
  relative viability: 0.355
NCI-H727; first compound 0.4 µM
  relative viability: 0.359
NCI-H727; first compound 1.265 µM
  relative viability: 0.399
NCI-H727; first compound 4 µM
  relative viability: 0.433
PC-14; first compound 0.04 µM
  relative viability: 0.832
PC-14; first compound 0.1265 µM
  relative viability: 0.712
PC-14; first compound 0.4 µM
  relative viability: 0.693
PC-14; first compound 1.265 µM
  relative viability: 0.69
PC-14; first compound 4 µM
  relative viability: 0.679
SK-LU-1; first compound 0.04 µM
  relative viability: 0.596
SK-LU-1; first compound 0.1265 µM
  relative viability: 0.581
SK-LU-1; first compound 0.4 µM
  relative viability: 0.523
SK-LU-1; first compound 1.265 µM
  relative viability: 0.535
SK-LU-1; first compound 4 µM
  relative viability: 0.527
SW 1573; first compound 0.04 µM
  relative viability: 0.596
SW 1573; first compound 0.1265 µM
  relative viability: 0.525
SW 1573; first compound 0.4 µM
  relative viability: 0.544
SW 1573; first compound 1.265 µM
  relative viability: 0.408
SW 1573; first compound 4 µM
  relative viability: 0.556
